Like-named read-outs stand apart in the source and are kept apart here.
How the values were obtained:
Experiment in all cases: Kinase selectivity, P33-radiolabeled assay
Format in all cases: biochemical
Conditions in all cases: 10 μM ATP
[1] = target: T1, Aurora A (Homo sapiens, UniProt O14965)
T1 construct: purchased Reaction Biology Corp
T1 sequence (O14965 1-403): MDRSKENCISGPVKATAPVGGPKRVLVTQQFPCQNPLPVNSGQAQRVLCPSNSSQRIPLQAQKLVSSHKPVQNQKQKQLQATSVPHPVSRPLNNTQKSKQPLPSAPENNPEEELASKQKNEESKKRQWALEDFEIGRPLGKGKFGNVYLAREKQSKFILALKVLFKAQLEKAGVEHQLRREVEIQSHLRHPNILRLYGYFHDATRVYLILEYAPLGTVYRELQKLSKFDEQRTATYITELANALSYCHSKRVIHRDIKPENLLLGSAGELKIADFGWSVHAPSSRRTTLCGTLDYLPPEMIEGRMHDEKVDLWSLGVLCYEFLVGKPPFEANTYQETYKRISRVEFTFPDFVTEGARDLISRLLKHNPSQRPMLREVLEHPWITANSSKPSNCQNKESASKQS
Method in brief: (§1)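 ATP at 10 μM; test article at 10 μM, single point, two replicates. Output is activity as % of DMSO.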

[2] = target: T2, CDK1/cyclin E (Homo sapiens, UniProt P06493)
T2 construct: purchased Reaction Biology Corp
T2 sequence (P06493 whole entry): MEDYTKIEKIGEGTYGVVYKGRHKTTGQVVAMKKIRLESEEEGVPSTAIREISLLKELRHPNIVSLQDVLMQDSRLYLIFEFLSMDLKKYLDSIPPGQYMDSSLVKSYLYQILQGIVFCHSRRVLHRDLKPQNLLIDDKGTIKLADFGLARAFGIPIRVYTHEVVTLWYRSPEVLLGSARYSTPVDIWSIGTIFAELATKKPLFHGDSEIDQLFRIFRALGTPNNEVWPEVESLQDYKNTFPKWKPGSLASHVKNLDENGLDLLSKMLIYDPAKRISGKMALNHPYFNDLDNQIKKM
T2 sequence (P24864 whole entry partner): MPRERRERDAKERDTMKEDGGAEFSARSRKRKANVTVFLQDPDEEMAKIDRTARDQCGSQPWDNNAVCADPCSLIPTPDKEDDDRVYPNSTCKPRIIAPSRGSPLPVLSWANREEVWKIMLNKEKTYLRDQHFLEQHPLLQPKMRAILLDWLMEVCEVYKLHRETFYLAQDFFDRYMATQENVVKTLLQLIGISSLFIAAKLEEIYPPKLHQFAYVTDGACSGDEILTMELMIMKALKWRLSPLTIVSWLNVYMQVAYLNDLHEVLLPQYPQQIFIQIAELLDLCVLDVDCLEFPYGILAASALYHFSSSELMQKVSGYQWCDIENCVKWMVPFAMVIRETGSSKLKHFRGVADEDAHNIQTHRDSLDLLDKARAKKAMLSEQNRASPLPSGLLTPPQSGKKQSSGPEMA
Method in brief: as §1

[3] = target: T3, DDR2 (Homo sapiens, UniProt Q16832)
T3 construct: purchased Reaction Biology Corp
T3 sequence (Q16832 22-855): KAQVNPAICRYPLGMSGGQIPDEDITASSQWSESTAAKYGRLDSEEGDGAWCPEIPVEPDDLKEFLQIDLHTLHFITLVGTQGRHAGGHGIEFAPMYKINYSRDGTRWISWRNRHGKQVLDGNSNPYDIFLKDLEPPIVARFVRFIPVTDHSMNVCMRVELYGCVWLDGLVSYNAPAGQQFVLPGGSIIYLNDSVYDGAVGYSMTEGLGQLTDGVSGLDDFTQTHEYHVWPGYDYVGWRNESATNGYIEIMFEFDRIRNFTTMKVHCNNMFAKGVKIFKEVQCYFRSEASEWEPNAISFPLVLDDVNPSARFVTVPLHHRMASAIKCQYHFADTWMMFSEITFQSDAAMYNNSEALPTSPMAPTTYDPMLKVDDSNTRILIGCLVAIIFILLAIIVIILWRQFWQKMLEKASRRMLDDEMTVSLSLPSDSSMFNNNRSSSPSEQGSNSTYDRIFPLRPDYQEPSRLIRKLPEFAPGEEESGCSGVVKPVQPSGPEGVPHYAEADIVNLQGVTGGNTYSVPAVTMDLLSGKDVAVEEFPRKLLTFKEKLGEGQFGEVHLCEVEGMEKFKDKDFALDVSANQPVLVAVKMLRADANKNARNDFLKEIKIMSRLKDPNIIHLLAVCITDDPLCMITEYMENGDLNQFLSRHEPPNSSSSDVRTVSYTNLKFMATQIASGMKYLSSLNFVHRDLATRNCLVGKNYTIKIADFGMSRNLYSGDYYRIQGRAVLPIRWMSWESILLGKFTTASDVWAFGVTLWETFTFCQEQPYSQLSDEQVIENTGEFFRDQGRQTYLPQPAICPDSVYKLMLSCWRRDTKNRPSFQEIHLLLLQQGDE
Method in brief: as §1

[4] = target: T4, TSSK2 (Homo sapiens, UniProt Q96PF2)
T4 construct: purchased Reaction Biology Corp
T4 sequence (Q96PF2 1-358): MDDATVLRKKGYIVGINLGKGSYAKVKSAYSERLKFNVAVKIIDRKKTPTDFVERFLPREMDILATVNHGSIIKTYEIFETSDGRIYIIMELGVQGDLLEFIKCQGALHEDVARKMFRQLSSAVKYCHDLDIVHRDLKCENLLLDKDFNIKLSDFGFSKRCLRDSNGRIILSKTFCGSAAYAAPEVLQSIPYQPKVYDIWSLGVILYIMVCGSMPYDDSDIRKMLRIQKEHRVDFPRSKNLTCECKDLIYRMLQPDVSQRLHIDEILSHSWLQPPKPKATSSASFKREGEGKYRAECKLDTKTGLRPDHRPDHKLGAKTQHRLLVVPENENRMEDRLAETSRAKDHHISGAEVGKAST
Method in brief: as §1

[5] = target: T5, TXK (Homo sapiens, UniProt P42681)
T5 construct: purchased Reaction Biology Corp
T5 sequence (P42681 1-527): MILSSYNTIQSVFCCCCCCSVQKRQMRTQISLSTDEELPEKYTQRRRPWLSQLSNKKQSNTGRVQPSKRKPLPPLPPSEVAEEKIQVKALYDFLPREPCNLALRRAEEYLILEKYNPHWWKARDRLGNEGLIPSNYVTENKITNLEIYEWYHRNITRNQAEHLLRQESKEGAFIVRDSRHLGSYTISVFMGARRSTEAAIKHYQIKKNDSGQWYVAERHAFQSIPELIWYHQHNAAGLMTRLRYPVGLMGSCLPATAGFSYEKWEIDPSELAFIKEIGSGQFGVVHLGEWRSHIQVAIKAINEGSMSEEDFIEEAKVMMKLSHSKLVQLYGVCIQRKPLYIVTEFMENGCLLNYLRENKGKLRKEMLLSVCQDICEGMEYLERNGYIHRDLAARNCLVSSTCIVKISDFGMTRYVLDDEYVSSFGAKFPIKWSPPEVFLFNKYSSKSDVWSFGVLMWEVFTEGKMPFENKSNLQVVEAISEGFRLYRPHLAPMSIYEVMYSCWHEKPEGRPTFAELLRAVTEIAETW
Method in brief: as §1

[6] = read-out: % Enzyme Activity (relative to DMSO controls) AVG
[7] = read-out: % Enzyme Activity (relative to DMSO controls) Data 1
[8] = read-out: % Enzyme Activity (relative to DMSO controls) Data 2

CC(C)(C)C(=O)N1N=CC[C@H]1c1ccccc1 [GSK′963]
remaining activity at 10 µM [1, 6]: 102%
remaining activity at 10 µM [1, 7]: 101%
remaining activity at 10 µM [1, 8]: 102%
remaining activity at 10 µM [2, 6]: 98.2%
remaining activity at 10 µM [2, 7]: 102%
remaining activity at 10 µM [2, 8]: 94.7%
remaining activity at 10 µM [3, 6]: 93.2%
remaining activity at 10 µM [3, 7]: 94%
remaining activity at 10 µM [3, 8]: 92.4%
remaining activity at 10 µM [4, 6]: 104%
remaining activity at 10 µM [4, 7]: 102%
remaining activity at 10 µM [4, 8]: 105%
remaining activity at 10 µM [5, 6]: 96.3%
remaining activity at 10 µM [5, 7]: 95.7%
remaining activity at 10 µM [5, 8]: 96.8%

Source: publication PMC4979471 (Cell Death Discovery, 2015)
